Test results reported in ChEMBL document CHEMBL1154277, “Discovery of N-substituted pyridinones as potent and selective inhibitors of p38 kinase” (Bioorg Med Chem Lett, 2009).

Experiments:
[1] = biological target: Phosphorylase b kinase gamma catalytic chain, liver/testis isoform (Homo sapiens) (UniProt P15735); test: Inhibition of PHKgamma2 at 10 uM
[2] = Inhibition of PKA at 10 uM
[3] = biological target: Tyrosine-protein kinase Yes (Homo sapiens) (UniProt P07947); test: Inhibition of YES1 at 10 uM
[4] = biological target: Homeodomain-interacting protein kinase 1 (Homo sapiens) (UniProt Q86Z02); test: Inhibition of HIPK1 at 10 uM
[5] = biological target: G protein-coupled receptor kinase 3 (Homo sapiens) (UniProt P35626); test: Inhibition of GRK3 at 10 uM
[6] = biological target: Insulin receptor-related protein (Homo sapiens) (UniProt P14616); test: Inhibition of INSRR at 10 uM
[7] = biological target: Tyrosine-protein kinase Lyn (Homo sapiens) (UniProt P07948); test: Inhibition of LYN B at 10 uM
[8] = biological target: Death-associated protein kinase 1 (Homo sapiens) (UniProt P53355); test: Inhibition of DAPK1 at 10 uM
[9] = biological target: Serine/threonine-protein kinase Nek2 (Homo sapiens) (UniProt P51955); test: Inhibition of NEK2 at 10 uM
[10] = biological target: Serine/threonine-protein kinase PAK 5 (Homo sapiens) (UniProt Q9P286); test: Inhibition of PAK7 at 10 uM
[11] = biological target: Casein kinase I isoform alpha (Homo sapiens) (UniProt P48729); test: Inhibition of CSNK1A1 at 10 uM
[12] = biological target: Death-associated protein kinase 3 (Homo sapiens) (UniProt O43293); test: Inhibition of ZIPK at 10 uM
[13] = biological target: Mitogen-activated protein kinase 10 (Homo sapiens) (UniProt P53779); test: Inhibition of JNK3 at 10 uM
[14] = biological target: Ephrin type-A receptor 5 (Homo sapiens) (UniProt P54756); test: Inhibition of EPHA5 at 10 uM
[15] = biological target: Protein kinase C delta type (Homo sapiens) (UniProt Q05655); test: Inhibition of PKCdelta at 10 uM
[16] = tested on: Platelet-derived growth factor receptor alpha (Homo sapiens), P16234 [T674I]; test: Inhibition of PDGFRalpha T674I (mutant) at 10 uM
[17] = biological target: Serine/threonine-protein kinase PAK 3 (Homo sapiens) (UniProt O75914); test: Inhibition of PAK3 at 10 uM
[18] = biological target: Proto-oncogene tyrosine-protein kinase Src (Homo sapiens) (UniProt P12931); test: Inhibition of SRC at 10 uM
Rattus norvegicus = test: Antiinflammatory activity in Lewis rat strep cell wall model assessed as inhibition of chronic paw swelling at 60 mg/kg; type: functional
[19] = biological target: Ephrin type-A receptor 8 (Homo sapiens) (UniProt P29322); test: Inhibition of EPHA8 at 10 uM
[20] = biological target: Serine/threonine-protein kinase Nek4 (Homo sapiens) (UniProt P51957); test: Inhibition of NEK4 at 10 uM
[21] = biological target: Muscle, skeletal receptor tyrosine-protein kinase (Homo sapiens) (UniProt O15146); test: Inhibition of MUSK at 10 uM
[22] = biological target: Serine/threonine-protein kinase DCLK2 (Homo sapiens) (UniProt Q8N568); test: Inhibition of DCK2 at 10 uM
[23] = biological target: Mitogen-activated protein kinase kinase kinase 8 (Homo sapiens) (UniProt P41279); test: Inhibition of COT at 10 uM
[24] = biological target: Tyrosine-protein kinase JAK1 (Homo sapiens) (UniProt P23458); test: Inhibition of JAK1 at 10 uM
[25] = biological target: Vascular endothelial growth factor receptor 1 (Homo sapiens) (UniProt P17948); test: Inhibition of FLT1 at 10 uM
[26] = biological target: Serine/threonine-protein kinase PAK 6 (Homo sapiens) (UniProt Q9NQU5); test: Inhibition of PAK6 at 10 uM
[27] = biological target: Ribosomal protein S6 kinase alpha-6 (Homo sapiens) (UniProt Q9UK32); test: Inhibition of RSK4 at 10 uM
[28] = biological target: Ephrin type-B receptor 1 (Homo sapiens) (UniProt P54762); test: Inhibition of EPHB1 at 10 uM
[29] = biological target: T1, Cyclin-dependent kinase 5/CDK5 activator 1 (Homo sapiens) (UniProt Q00535+Q15078); test: Inhibition of CDK5/p25 at 10 uM; type: protein-complex assay
[30] = tested on: Platelet-derived growth factor receptor alpha (Homo sapiens), P16234 [V561D]; test: Inhibition of PDGFRalpha V561D (mutant) at 10 uM
[31] = Selectivity ratio of p38alpha over p38beta
[32] = biological target: Tyrosine-protein kinase receptor TYRO3 (Homo sapiens) (UniProt Q06418); test: Inhibition of RSE at 10 uM
[33] = biological target: Ephrin type-A receptor 2 (Homo sapiens) (UniProt P29317); test: Inhibition of EPHA2 at 10 uM
[34] = biological target: Serine/threonine-protein kinase D1 (Homo sapiens) (UniProt Q15139); test: Inhibition of PKCmu at 10 uM
[35] = biological target: Aurora kinase B (Homo sapiens) (UniProt Q96GD4); test: Inhibition of Aurora B at 10 uM
[36] = biological target: Focal adhesion kinase 1 (Homo sapiens) (UniProt Q05397); test: Inhibition of FAK at 10 uM
[37] = biological target: Tyrosine-protein kinase JAK2 (Homo sapiens) (UniProt O60674); test: Inhibition of JAK2 at 10 uM
[38] = biological target: Proto-oncogene tyrosine-protein kinase ROS (Homo sapiens) (UniProt P08922); test: Inhibition of ROS1 at 10 uM
[39] = biological target: Serine/threonine-protein kinase 25 (Homo sapiens) (UniProt O00506); test: Inhibition of YSK1 at 10 uM
[40] = biological target: Protein kinase C beta type (Homo sapiens) (UniProt P05771); test: Inhibition of PKCbeta1 at 10 uM
[41] = biological target: MAP/microtubule affinity-regulating kinase 4 (Homo sapiens) (UniProt Q96L34); test: Inhibition of MARK4 at 10 uM
[42] = biological target: Tyrosine-protein kinase CSK (Homo sapiens) (UniProt P41240); test: Inhibition of CSK at 10 uM
[43] = biological target: Calcium/calmodulin-dependent protein kinase type II subunit beta (Homo sapiens) (UniProt Q13554); test: Inhibition of CAMK2beta at 10 uM
[44] = biological target: Cyclin-dependent kinase 7/ cyclin H (Homo sapiens) (UniProt P51946+P50613); test: Inhibition of CDK7/cyclin H/MNAT1 at 10 uM; type: protein-complex assay
[45] = biological target: Mitogen-activated protein kinase 8 (Homo sapiens) (UniProt P45983); test: Inhibition of JNK1 at 10 uM
[46] = biological target: Tyrosine-protein kinase Lck (Homo sapiens) (UniProt P06239); test: Inhibition of LCK at 10 uM
[47] = biological target: Serine/threonine-protein kinase pim-1 (Homo sapiens) (UniProt P11309); test: Inhibition of PIM1 at 10 uM
[48] = biological target: T1, Cyclin-dependent kinase 5/CDK5 activator 1 (Homo sapiens); test: Inhibition of CDK5/p35 at 10 uM; type: protein-complex assay

T1 sequence (Q00535 whole entry): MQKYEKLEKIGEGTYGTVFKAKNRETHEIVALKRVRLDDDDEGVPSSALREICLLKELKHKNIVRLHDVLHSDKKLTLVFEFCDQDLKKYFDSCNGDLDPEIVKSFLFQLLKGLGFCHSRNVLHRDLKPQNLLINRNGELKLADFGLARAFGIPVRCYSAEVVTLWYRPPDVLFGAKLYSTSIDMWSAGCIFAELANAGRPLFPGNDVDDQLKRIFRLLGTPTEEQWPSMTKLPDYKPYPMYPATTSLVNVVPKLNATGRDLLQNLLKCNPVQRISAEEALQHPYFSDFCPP
T1 sequence (Q15078 99-307 partner limits assumed): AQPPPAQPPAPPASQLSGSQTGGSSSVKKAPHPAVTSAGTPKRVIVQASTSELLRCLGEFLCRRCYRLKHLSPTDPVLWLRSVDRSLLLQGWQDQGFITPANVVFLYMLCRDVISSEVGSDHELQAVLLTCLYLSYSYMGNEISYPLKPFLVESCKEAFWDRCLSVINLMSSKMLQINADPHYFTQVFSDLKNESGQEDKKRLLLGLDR
Sequence of Tyrosine-protein kinase receptor TYRO3 (Homo sapiens) (Q06418 whole entry): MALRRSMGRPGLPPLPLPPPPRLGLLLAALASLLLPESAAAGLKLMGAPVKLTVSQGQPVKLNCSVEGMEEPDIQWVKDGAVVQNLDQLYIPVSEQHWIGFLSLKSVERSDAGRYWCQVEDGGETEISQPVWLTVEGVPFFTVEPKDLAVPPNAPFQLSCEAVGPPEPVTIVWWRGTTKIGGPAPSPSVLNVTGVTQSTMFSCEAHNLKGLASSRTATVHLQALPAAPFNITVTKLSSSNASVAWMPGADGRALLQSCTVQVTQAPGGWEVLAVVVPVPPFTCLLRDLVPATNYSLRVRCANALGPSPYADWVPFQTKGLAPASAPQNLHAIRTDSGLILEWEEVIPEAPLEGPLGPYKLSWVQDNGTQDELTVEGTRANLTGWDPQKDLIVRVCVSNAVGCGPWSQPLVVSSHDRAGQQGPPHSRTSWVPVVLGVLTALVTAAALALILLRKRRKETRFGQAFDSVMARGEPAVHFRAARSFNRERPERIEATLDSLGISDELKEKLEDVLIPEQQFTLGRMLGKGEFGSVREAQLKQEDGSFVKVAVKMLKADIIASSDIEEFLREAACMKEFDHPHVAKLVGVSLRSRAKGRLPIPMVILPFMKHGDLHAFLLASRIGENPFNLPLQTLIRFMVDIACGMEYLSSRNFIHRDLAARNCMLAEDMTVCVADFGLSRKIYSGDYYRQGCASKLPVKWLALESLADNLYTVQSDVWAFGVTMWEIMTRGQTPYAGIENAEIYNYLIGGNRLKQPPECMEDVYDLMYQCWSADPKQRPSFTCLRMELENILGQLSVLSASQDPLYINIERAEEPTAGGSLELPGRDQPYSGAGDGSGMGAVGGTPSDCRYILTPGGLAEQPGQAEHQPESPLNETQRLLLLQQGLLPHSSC
Sequence of Tyrosine-protein kinase CSK (Homo sapiens) (P41240 2-450 limits assumed): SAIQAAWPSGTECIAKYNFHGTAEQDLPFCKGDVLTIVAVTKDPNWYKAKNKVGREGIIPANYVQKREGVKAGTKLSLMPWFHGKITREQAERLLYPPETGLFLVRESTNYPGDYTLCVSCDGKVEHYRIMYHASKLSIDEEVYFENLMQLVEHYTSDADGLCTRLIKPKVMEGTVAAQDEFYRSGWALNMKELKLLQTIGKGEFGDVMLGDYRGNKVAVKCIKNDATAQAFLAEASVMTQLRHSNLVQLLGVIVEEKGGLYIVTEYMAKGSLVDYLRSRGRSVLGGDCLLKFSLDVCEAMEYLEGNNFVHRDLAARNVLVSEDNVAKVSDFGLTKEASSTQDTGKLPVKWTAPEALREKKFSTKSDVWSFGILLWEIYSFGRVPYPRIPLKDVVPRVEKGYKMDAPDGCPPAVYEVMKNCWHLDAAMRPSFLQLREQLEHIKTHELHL
Sequence of Tyrosine-protein kinase Lyn (Homo sapiens) (P07948 2-512 limits assumed): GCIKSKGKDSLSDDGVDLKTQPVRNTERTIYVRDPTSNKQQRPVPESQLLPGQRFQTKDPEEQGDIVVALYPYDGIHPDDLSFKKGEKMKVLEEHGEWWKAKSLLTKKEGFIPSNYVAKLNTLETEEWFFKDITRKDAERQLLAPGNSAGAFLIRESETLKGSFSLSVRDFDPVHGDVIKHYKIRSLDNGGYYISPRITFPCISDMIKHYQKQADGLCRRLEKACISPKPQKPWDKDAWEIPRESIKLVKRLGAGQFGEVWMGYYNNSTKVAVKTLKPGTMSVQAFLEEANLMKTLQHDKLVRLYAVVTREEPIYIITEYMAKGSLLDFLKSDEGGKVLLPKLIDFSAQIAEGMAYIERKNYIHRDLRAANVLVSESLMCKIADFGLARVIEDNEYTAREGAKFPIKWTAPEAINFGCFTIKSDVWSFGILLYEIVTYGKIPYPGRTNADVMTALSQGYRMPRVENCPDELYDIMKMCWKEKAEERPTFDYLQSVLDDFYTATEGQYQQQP
Sequence of Phosphorylase b kinase gamma catalytic chain, liver/testis isoform (Homo sapiens) (P15735 whole entry, canonical isoform): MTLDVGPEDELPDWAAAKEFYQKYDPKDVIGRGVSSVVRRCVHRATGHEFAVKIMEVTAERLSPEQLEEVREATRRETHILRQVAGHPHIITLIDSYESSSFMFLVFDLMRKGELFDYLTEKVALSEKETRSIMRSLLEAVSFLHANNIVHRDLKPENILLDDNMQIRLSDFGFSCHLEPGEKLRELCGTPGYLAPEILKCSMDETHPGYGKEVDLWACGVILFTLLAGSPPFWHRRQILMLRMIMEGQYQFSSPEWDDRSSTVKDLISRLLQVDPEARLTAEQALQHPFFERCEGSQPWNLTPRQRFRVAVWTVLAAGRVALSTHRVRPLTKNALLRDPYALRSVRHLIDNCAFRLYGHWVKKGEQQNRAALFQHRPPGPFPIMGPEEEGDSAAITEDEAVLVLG
Sequence of Calcium/calmodulin-dependent protein kinase type II subunit beta (Homo sapiens) (Q13554 whole entry): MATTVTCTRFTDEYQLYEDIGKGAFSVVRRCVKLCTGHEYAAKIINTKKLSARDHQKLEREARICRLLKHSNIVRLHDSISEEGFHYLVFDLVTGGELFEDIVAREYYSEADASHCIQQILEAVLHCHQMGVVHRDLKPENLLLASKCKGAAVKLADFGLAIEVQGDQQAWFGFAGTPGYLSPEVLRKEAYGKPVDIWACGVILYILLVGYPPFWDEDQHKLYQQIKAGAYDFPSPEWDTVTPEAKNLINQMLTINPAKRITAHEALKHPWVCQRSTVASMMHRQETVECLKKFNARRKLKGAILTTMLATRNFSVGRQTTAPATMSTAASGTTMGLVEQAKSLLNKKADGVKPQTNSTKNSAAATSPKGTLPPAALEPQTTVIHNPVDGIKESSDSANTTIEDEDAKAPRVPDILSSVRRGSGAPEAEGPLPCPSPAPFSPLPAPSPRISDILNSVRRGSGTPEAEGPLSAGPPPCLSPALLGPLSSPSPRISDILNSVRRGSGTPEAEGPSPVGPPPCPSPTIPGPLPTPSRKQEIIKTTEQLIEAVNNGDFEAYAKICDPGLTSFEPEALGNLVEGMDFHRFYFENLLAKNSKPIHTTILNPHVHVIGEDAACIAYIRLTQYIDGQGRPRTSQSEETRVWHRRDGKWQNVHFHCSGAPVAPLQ
Sequence of Muscle, skeletal receptor tyrosine-protein kinase (Homo sapiens) (O15146 whole entry): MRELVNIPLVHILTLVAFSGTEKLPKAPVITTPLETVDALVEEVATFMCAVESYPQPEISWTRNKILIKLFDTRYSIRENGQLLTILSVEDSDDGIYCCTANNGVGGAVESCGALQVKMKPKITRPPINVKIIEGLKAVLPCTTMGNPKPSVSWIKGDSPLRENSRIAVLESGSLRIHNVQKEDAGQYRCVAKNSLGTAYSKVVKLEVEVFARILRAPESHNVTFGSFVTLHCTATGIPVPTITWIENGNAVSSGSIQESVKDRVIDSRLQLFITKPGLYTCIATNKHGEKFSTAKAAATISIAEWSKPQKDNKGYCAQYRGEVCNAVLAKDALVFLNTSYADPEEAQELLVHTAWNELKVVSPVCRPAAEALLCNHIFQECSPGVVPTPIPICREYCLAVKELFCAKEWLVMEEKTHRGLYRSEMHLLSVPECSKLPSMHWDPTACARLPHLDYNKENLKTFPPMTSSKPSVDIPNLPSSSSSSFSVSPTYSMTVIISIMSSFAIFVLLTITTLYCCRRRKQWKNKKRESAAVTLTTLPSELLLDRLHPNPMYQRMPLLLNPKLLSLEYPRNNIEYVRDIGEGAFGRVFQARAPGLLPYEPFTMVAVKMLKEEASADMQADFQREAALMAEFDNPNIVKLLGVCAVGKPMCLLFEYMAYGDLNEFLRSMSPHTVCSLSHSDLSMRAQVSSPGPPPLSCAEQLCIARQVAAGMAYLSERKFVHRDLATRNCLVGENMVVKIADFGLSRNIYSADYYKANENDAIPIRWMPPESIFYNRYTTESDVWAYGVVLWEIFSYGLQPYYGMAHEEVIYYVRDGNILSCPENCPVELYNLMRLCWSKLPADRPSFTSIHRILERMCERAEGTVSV
Sequence of Aurora kinase B (Homo sapiens) (Q96GD4 whole entry): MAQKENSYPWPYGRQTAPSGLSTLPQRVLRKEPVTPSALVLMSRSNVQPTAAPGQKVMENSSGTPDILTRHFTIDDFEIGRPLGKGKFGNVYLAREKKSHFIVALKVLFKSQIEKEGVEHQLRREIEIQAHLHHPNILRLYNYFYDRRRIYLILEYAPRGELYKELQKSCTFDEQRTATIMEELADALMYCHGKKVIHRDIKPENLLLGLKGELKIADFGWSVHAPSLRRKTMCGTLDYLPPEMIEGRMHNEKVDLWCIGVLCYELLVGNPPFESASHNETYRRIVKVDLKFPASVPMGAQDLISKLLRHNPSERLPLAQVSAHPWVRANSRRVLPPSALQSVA
Sequence of Serine/threonine-protein kinase pim-1 (Homo sapiens) (P11309 whole entry, looked up): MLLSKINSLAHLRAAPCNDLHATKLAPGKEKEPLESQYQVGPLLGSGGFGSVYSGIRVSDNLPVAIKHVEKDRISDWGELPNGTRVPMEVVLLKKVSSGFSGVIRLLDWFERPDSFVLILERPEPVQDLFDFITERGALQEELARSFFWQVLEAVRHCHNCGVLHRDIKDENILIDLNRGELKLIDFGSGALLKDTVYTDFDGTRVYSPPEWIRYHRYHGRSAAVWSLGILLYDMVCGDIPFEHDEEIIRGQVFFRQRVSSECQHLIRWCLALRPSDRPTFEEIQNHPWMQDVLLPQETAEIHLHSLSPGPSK

inhibition [1]: < 50% | inhibition [2]: < 50% | inhibition [3]: < 50% | inhibition [4]: < 50% | inhibition [5]: < 50% | inhibition [6]: < 50% | inhibition [7]: < 50% | inhibition [9]: < 50% | inhibition [10]: < 50% | inhibition [11]: < 50% | inhibition [13]: < 50% | inhibition [14]: < 50% | inhibition [15]: < 50% | inhibition [16]: < 50% | inhibition [17]: < 50% | inhibition [18]: < 50% | inhibition [19]: < 50% | inhibition [20]: < 50% | inhibition [21]: < 50% | inhibition [22]: < 50% | inhibition [23]: < 50% | inhibition [24]: < 50% | inhibition [25]: < 50% | inhibition [26]: < 50% | inhibition [27]: < 50% | inhibition [28]: < 50% | inhibition [29]: < 50% | inhibition [30]: < 50% | Selectivity ratio [31]: 5 | inhibition [32]: < 50% | inhibition [33]: < 50% | inhibition [34]: < 50% | inhibition [35]: < 50% | inhibition [36]: < 50% | inhibition [37]: < 50% | inhibition [38]: < 50% | inhibition [39]: < 50% | inhibition [40]: < 50% | inhibition [41]: < 50% | inhibition [42]: < 50% | inhibition [43]: < 50% | inhibition [44]: < 50% | inhibition [45]: < 50% | inhibition [46]: < 50% | inhibition [47]: < 50% | inhibition [48]: < 50%
Compound: Cc1cc(OCc2ccc(F)cc2F)c(Br)c(=O)n1Cc1ccc(CN(C)C)cc1
inhibition [8]: < 50% | inhibition [12]: < 50% | inhibition in vivo at 60 mg/kg (Rattus norvegicus): 88%
